Where “and” joins values, the source holds several entries; their conditions need not be identical. Equal values may be shown once. Where a name gives a salt, the structure may show the parent alone. Read-outs that look alike come from different tables or passages of the source.
Assays:
[1] = test system: albumin; conditions: cited from earlier work
[2] = molecular target: T1, bovine serum albumin (BSA) (Bos taurus, UniProt P02769); conditions: for Stern–Volmer quenching constant KSV: GLICL as quencher 0–14 µM, DRUG 8 µM (DRUG:BSA 4:1), λex 280 nm
T1 sequence (P02769 25-607): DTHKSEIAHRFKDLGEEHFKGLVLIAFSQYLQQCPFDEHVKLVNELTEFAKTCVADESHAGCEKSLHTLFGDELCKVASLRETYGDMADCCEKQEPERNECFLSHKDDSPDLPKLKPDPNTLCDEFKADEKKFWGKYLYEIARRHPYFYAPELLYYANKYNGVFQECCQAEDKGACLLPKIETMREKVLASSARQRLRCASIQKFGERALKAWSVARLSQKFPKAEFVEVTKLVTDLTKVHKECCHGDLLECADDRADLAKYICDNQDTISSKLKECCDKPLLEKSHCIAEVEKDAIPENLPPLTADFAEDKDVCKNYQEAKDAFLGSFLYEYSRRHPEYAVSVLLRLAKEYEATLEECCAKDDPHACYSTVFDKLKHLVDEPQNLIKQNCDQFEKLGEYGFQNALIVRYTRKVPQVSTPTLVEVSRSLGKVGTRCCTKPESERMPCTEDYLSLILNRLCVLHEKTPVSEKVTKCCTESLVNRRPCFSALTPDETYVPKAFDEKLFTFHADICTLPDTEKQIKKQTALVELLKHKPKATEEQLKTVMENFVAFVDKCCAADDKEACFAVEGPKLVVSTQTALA
Procedure: (§1) Bovine serum albumin (≥96%) was used to prepare 1.2 mM stock solution in PBS (pH 7.4). […] The concentration of BSA was controlled by the spectrophotometric method at 280 nm (with a molar coefficient of 43,824 cm^−1 M^−1). […] Simultaneously, a control sample containing BSA solution without any ligands was prepared. Measurements were performed in triplicate. All reagents were received from Sigma-Aldrich (St. Luis, MO, USA).
Fluorescence intensities of ternary models (BSA–DRUG–GLICL) were recorded using a Jasco FP-8200 spectrofluorometer with Peltier-thermo Cell Holder ETC-814 (Tokyo, Japan) at excitation wavelength of 280 nm, equipped with 1.0 cm quartz cells. The slit widths were set at 5 nm. The measurements were conducted at two different temperatures, 298 and 310 K. The fluorescence spectra of the drugs alone were also recorded. Each spectrum background was corrected by subtracting the spectrum of the phosphate buffer as a blank sample.
According to the assumption that fluorophores in a protein molecule may differ in accessibility, modified Stern–Volmer Equation (2) was used for the construction of plots and to calculate quenching constants:(2) F0/F0−F=1/fa·KSV·Q+1/fa where F0 and F are the fluorescence intensities in the absence and presence of gliclazide (GLICL), respectively; fa is the fraction of the initial fluorescence accessible to the quencher; Ksv is the Stern–Volmer quenching constant; and Q is the concentration of the quencher (GLICL).
The binding parameters (binding constant and number of binding sites) were obtained from double-log modified Stern–Volmer Equation (3):(3) logF0−F/F=logKa+n·logQ where F0 and F are the fluorescence intensities in the absence and presence of the quencher (gliclazide), respectively; Ka is the binding constant of the complex BSA–DRUG–GLICL, expressed as M^−1; n is the number of bound gliclazide molecules; and Q is the concentration of the quencher (GLICL).

[3] = molecular target: T1, bovine serum albumin (BSA)
Procedure: as §1
The thermodynamic analysis of the interaction between albumin and GLICL was performed on measurements at three temperatures (298, 303, 310 K) based on the van’t Hoff Equations (4)–(6):(4) ΔG=−R·T·lnKa (5) ΔG=ΔH−T·ΔS (6) lnKa=−ΔH/R·T+ΔS/R where ΔG is the free energy change, ΔH is the enthalpy change, ΔS is the entropy change, R is the universal gas constant, and T is the temperature.

[4] = molecular target: T1, bovine serum albumin (BSA); remark: listed apart in the source
Procedure: as §1
The circular dichroism spectra data were recorded using JASCO J-1500 spectropolarimeter (Tokyo, Japan) in the range of 205–250 nm, with a scanning speed of 200 nm/min and with 0.1 step resolution using a quartz cuvette with a length path of 0.1 cm. The measurements were conducted for binary (BSA–DRUG) and ternary (BSA–DRUG–GLICL) models to provide information about the influence of ligand binding on the protein structure. The baseline was corrected using a phosphate buffer, pH = 7.4.
Mean residue ellipticity (MRE) was calculated according to the following Equation (7) and expressed in deg cm^2 dmol^−1:(7) MRE=Θobs/cp·n·l·10 where Θobs is the observed CD (in mdegree), Cp is the molar concentration of BSA, n is the number of amino acid residues (583 for BSA), and l is the path length of the cuvette (0.1 cm).
The α-helical contents of free and modified BSA were calculated from MRE values at 208 nm with Equation (8):(8) α-helix (%)=MRE208−4000/33,000−4000 ·100 where MRE208 is the observed MRE value at 208 nm, 4000 is the MRE of the β-form and random coil conformation cross at 208 nm, and 33,000 is the MRE value of the pure α-helix of BSA at 208 nm.

[5] = test system: plasma protein; conditions: cited from earlier work; for Binding to plasma protein: general statement, no reference given
[6] = test system: BSA; set-up: method as in PMID 28888191; conditions: no additional ligand, cited from earlier work
[7] = BSA–GLICL complex in presence of DRUG, 298 303 310 K

CC(C)NCC(O)COc1ccc(CC(N)=O)cc1 (stereo not drawn) [ATN, atenolol]
Association constant, site 1 of albumin [1]: approx. 10^3 M^−1

CCCCC(=O)N(Cc1ccc(-c2ccccc2-c2nnn[nH]2)cc1)[C@H](C(=O)O)C(C)C [VAL, valsartan]
Ka, association constant of BSA–GLICL complex in presence of DRUG [2]: 0.12 ± 0.04 10^4 M^−1 | Mechanism of quenching of BSA fluorescence by GLICL in presence of DRUG [2]: static mechanism | n, number of binding sites (bound gliclazide molecules) [2]: 0.87 ± 0.01 and 0.74 ± 0.02 | ΔG [3]: -21.80 kJ/mol | ΔH [3]: 100.10 kJ/mol | ΔS [3]: 393.25 J/mol K | Decreased α-Helix (%) [4]: 1.0% and 3.5% | α-Helix Content (%) [4]: 67.7% and 65.2% | Protein binding [5]: 95%

CCOC(=O)[C@H](CCc1ccccc1)N[C@@H](C)C(=O)N1Cc2ccccc2C[C@H]1C(=O)O [QUI, quinapril hydrochloride]
n, number of binding sites (bound gliclazide molecules) ([2]; BSA–DRUG–GLICL, 298 K): 1.04 ± 0.01 | n, number of binding sites (bound gliclazide molecules) ([2]; BSA–DRUG–GLICL, 310 K): 1.03 ± 0.03 | Ka, association constant of BSA–GLICL complex in presence of DRUG ([2]; BSA–DRUG–GLICL, DRUG:BSA 4:1, 298 K): 1.65 ± 0.02 10^4 M^−1 | Ka, association constant of BSA–GLICL complex in presence of DRUG ([2]; BSA–DRUG–GLICL, DRUG:BSA 4:1, 310 K): 2.09 ± 0.07 10^4 M^−1 | Stern–Volmer quenching constant KSV ([2]; BSA–DRUG–GLICL, 298 K): 2.23 ± 0.01 10^4 M^−1 | Stern–Volmer quenching constant KSV ([2]; BSA–DRUG–GLICL, 310 K): 0.96 ± 0.16 10^4 M^−1 | Mechanism of quenching of BSA fluorescence by GLICL in presence of DRUG ([2]; from temperature dependence of KSV, 298 vs 310 K): static mechanism | Change of Ka of BSA–GLICL complex in comparison to the binary model ([2]; ternary vs binary model (binary Ka from ref 24)): more than a twofold decrease | ΔH [3, 7]: 15.08 kJ/mol | ΔS [3, 7]: 131.36 J/mol K | ΔG ([3]; BSA–GLICL complex in presence of DRUG, 298 K): -24.07 kJ/mol | ΔG ([3]; BSA–GLICL complex in presence of DRUG, 303 K): -24.72 kJ/mol | ΔG ([3]; BSA–GLICL complex in presence of DRUG, 310 K): -25.64 kJ/mol | α-Helix Content (%) ([4]; binary BSA–DRUG, molar ratio 1:4, 310 K (BSA alone 68.7)): 67.6% | Decreased α-Helix (%) ([4]; binary BSA–DRUG, molar ratio 1:4, 310 K, vs BSA alone): 1.1% | α-Helix Content (%) ([4]; ternary BSA–DRUG–GLICL, BSA:Ligand 1:4, BSA:GLICL 1:7, 310 K (BSA alone 68.7)): 63.1% | Decreased α-Helix (%) ([4]; ternary BSA–DRUG–GLICL, BSA:Ligand 1:4, BSA:GLICL 1:7, 310 K, vs BSA alone): 5.6% | Binding to plasma protein [5]: over 95%

CCOC(=O)C1=C(COCCN)NC(C)=C(C(=O)OC)C1c1ccccc1Cl (stereo not drawn) [AML, amlodipine besylate]
Ka, association constant of BSA–GLICL complex in presence of DRUG [2]: 1.15 ± 0.01 10^4 M^−1 | n, number of binding sites (bound gliclazide molecules) [2]: 0.93 ± 0.01 and 0.97 ± 0.01 | ΔS [3]: 100.32 J/mol K | Decreased α-Helix (%) [4]: 0.7% | Binding to plasma protein [5]: over 95%

Cc1ccc(S(=O)(=O)NC(=O)NN2CC3CCCC3C2)cc1 (stereo not drawn) [GLICL, gliclazide]
Plasma protein binding [5]: up to 94% | Ka of BSA–GLICL (binary model) ([6]; 298 K): 3.80 10^4 M^−1 | Ka of BSA–GLICL (binary model) ([6]; 310 K): 3.76 10^4 M^−1

— publication PMC8745505, “In Vitro Investigation of Binding Interactions between Albumin–Gliclazide Model and Typical Hypotensive Drugs” (International Journal of Molecular Sciences, 2021)
